The values that follow come from patent publication US10440955B2, “Methods comprising a biocidal polyamine” (Curza Global, LLC, priority 2013, dated 2019).

≈ marks a conversion by molar mass, not a printed value. Structures can show the parent of a compound that is named as a salt. Where two headings read alike, the source gives them in different places.

Data set [1] has as its system various bacterial cell cultures. In words: Antimicrobial activity of polyamines in hydrogel on agar lawns. Type of data set: cell-based. As to conditions: 0.5% CZ compound in 0.5% sodium hyaluronate gel, 500 uL on TSA lawn, 37 C for 24 hours. The protocol:
A 0.5 McFarland standard of each bacteria was made, then individual lawns of bacteria spread onto the surface of tryptic soy agar (TSA). 500 uL of the suspended gel were placed on the center of each lawn. Plates were incubated at 37 C for 24 hours, then imaged. Images of the resulting gels are shown in FIGS. 30A to 30I show the effects of the polyamines CZ-86, CZ-100, and CZ-110 on various bacterial cell cultures.
The hydrogel that was used for those images is a LifeCore gel with 1% sodium hyaluronate (1% Sodium Hyaluronate Solution Part #82). The CZ compound was suspended in water at 1% (w/w) concentration and combined with the LifeCore gel 1:1 for a final product that contained 0.5% sodium hyaluronate and 0.5% CZ compound.

In data set [2] the test system is MRSA. The experiment in a line: MIC, 96-well CAMHB, 10^5 to 10^2 CFU/mL in 24 hours. As to conditions: Staphylococcus aureus, MRSA, read-out: MIC (MRSA). Type of data set: cell-based, Staphylococcus aureus. The method, boiled down:
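Compound exposure was 24 h at 37 °C in CAMHB with an inoculum of ~5×10^5 CFU/mL from a 0.5 McFarland; eight replicates per concentration.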

A further data set has as its system A. baumannii. The description is as above. Type of data set: cell-based, Acinetobacter baumannii. Conditions: Acinetobacter baumannii, read-out: MIC (A. bumannii). As for the experimental part:
To determine the MIC of polyamine compounds, the protocol described herein was used.
In brief, a 0.5 McFarland of each bacterial isolate was made. A 0.5 McFarland is a measure of turbidity in a liquid sample that contains approximately 1×10^∧8 CFU/mL. The 0.5 McFarland standard was diluted in cation adjusted Mueller Hinton Broth (CAMHB), and 50 μL of broth were added to a well of a 96-well plate. In addition, 50 μL of CAMHB that contained a desired concentration of antimicrobial were also added to the well for a final volume of 100 μL and a final concentration of approximately 5×10^4 CFU/well (which equated to approximately 5×10^5 CFU/mL). Each well contained a desired amount of polyamine compound in order to experimentally determine the MIC. Each 96-well plate was incubated at 37° C. for 24 hours. The contents of each well were plated on tryptic soy agar (TSA). TSA plates were incubated for 37° C. for 24 hours after which the number of CFU were counted and used to calculate the CFU/mL that remained after exposure to varying concentrations of compound. This procedure was repeated n=8 times for each concentration of antimicrobial.
A 0.5 McFarland of A. baumannii is made. A 0.5 McFarland is a measure of turbidity in a liquid sample that contains approximately 7.5×10^7 CFU/mL. The 0.5 McFarland standard is diluted in CAMHB and 50 μL of broth is added to a well of a 96-well plate. In addition, 50 μL of CAMHB that contains a desired concentration of antimicrobial is added to the well for a final volume of 100 μL and a final concentration of approximately 5×10^4 CFU/well (which equates to approximately 5×10^5 CFU/mL). Each well contains a desired amount of CZ compound in order to experimentally determine the MIC. Each 96-well plate is incubated at 37° C. for 24 hours. The contents of each well is plated on tryptic soy agar (TSA). TSA plates is incubated at 37° C. for 24 hours after which the number of CFUs is counted and used to calculate the CFU/mL that remain after exposure to varying concentrations of compound. This procedure is repeated n=8 times for each concentration of antimicrobial. […]

A further data set concerns P. aeruginosa. The description is as above. The format is cell-based, Pseudomonas aeruginosa. As to conditions: Pseudomonas aeruginosa. In a few lines:
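Broth microdilution in CAMHB with about 5×10^5 CFU/mL inoculum, incubated 24 h at 37 °C with graded polyamine compound concentrations. Surviving CFU/mL determined by plating each well on TSA for 24 h at 37 °C; n=8 per concentration.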

For the next data set, the system named is L-929 cells (ATCC CCL-1). In words: Minimal Essential Media (MEM) Elution cytotoxicity test. Type of data set: cell-based. As to conditions: Table 9A. In a few lines:
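L-929 cells (ATCC CCL-1) were seeded in multiwell plates and grown to roughly 80% confluence. Test article dilutions (1:2, 1:4, 1:8, 1:16) and control extracts were applied in triplicate and incubated 48±3 hours at 37±1° C. in 5±1% CO2. Wells were scored microscopically for morphological cytotoxicity on a 0–4 scale and averaged; Pass required grade not greater than 2 per USP <87>.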

In another data set the test system is biofilms of MRSA. As to conditions: understanding of the inventors; no own test described; cited from earlier work.
Data set [3] deals with MRSA. The experiment in a line: MIC against MRSA (as defined by CLSI). Type of data set: cell-based. Conditions: Staphylococcus aureus, FIG. 25. The protocol: To determine the MIC of the polyamine chains alone and the synthesized compounds against MRSA and P. aeruginosa ATCC 27853, a modified protocol from the Clinical and Laboratory Standards Institute (CLSI) guideline M26-A was used. […] All data was collected using cation adjusted MHB for standardization.
As mentioned, MRSA and P. aeruginosa ATCC 27853 were grown on Columbia blood agar plates prior to experimentation. From the blood agar plates, a 0.5 McFarland standard was made of each isolate. This equated to approximately 5×10^7 cells/mL for the MRSA isolate and approximately 3×10^7 cells/mL for the P. aeruginosa ATCC 27853 isolate. Of the 0.5 McFarland stock solution, 50 μL were added to MHB. […] All tests were performed such that a final volume of 5 mL of MHB were obtained. This provided a final bacterial concentration of approximately 5×10^5 cells/mL.
Each sample was incubated in glass test tubes at 37° C. for 24 hours, then plated in duplicate on tryptic soy agar (TSA) using a 10-fold dilution series. TSA plates were further incubated 24 hours at 37° C. The number of colony forming units (CFU) that grew were counted in order to calculate the number of bacteria that were present per mL in the original MHB solution.

In the next data set the test system is human blood. The experiment in a line: Hemolysis test with diluted human blood (ISO 10993-4). The format is cell-based. An excerpt:
Procedure: The PBS used in testing was calcium and magnesium free. The method has been validated using human blood from one donor. This is in compliance with ISO 10993-4 which states due to differences in blood activity, human blood should be used where possible. Furthermore, pooling unmatched human blood from multiple donors may cause red blood cell agglutination which in turn could cause hemolysis; this supports the use of a single donor.
The blood was drawn using vacutainers containing 0.1 M sodium citrate at a ratio of 9:1 (3.2% anticoagulant to blood). The blood in this test was used within four hours of blood draw. The collected blood was refrigerated until testing was performed.
A hemoglobin standard was diluted with Drabkin's reagent to give solutions at concentrations of 0.80, 0.60, 0.40, 0.30, 0.20, 0.10, 0.02, and 0.01 mg/ml. These solutions were allowed to stand at room temperature for a minimum of five minutes. The absorbance was read on a spectrophotometer at 540 nanometers (nm). A standard curve was determined with the absorbance values and the standard concentrations of hemoglobin.
Human blood was centrifuged at 700-800×g for 15 minutes. A 1 mL aliquot of the plasma was added into 1 mL of Drabkin's reagent, and placed at room temperature for a minimum of 15 minutes. The absorbance was read on a spectrophotometer at 540 nm. The hemoglobin concentration was determined from the standard curve and then multiplied by a factor of 2 to obtain the total plasma free hemoglobin. The plasma free hemoglobin was less than 2 mg/mL (actual value 0.221 mg/mL). A 20 μL aliquot of blood was added to 5 mL of Drabkin's reagent in duplicate and allowed to stand at room temperature for a minimum of 15 minutes. The absorbance was read on a spectrophotometer at 540 nm then multiplied by 251 to account for the dilution.
Based on the plasma hemoglobin and the blood absorbance against Drabkin's reagent, the blood was diluted out to 10±1 mg/mL with PBS. To verify the blood dilution, a 300 μL aliquot of this blood was added to 4.5 mL of Drabkin's reagent in triplicate and allowed to stand at room temperature for a minimum of 15 minutes. The absorbance was read on a spectrophotometer at 540 nm then multiplied by 16 to account for the dilution.
Glass test tubes were labeled appropriately. Both samples were prepared the same way. The samples were allowed to thaw prior to testing. To each test tube, 7 mL of the test article and 1 mL of the diluted blood were added. The controls consisted of the appropriate amount of control material, 7 mL of PBS and 1 mL of blood. Three tubes were prepared for each test article and control. The tubes were incubated at 37±2° C. for 3 hours±5 minutes. Tubes were gently inverted twice at 30 minute intervals throughout the incubation period. A non-hemolytic negative control, a hemolytic positive control and a PBS blank were included.
After incubation, test articles were centrifuged at 700-800×g for 15 minutes and 1 mL of the supernatant fluid was combined with 1 mL of Drabkin's reagent and allowed to stand at room temperature for a minimum of 15 minutes. Following the centrifugation phase, the supernatant of both test articles visually appeared clear and were particulate free. The PBS blank and the negative control supernatant visually appeared clear and were particulate free. The supernatant of the positive control visually appeared red and were particulate free. The test articles and controls were read at 540 nm in a spectrophotometer.
The hemolytic index (percent hemolysis) was interpreted using the following equation:
[formula] Where: Hemoglobin Released (mg/mL)=(Optical Density×X Coefficient+Constant)×16 Hemoglobin Present (mg/ml)=Diluted Blood 10±1 mg/mL
The corrected hemolytic index was calculated by subtracting the hemolytic index of the PBS blank solution from the hemolytic index of the test article and controls. […]

Where [4] appears, read: Table 5, read-out: MIC (P. aeruginosa).
[5] abbreviates: read-out: MIC (P. aeruginosa), Table 5.

Regarding `CCCCCCCCNCCCNCCCNCc1cccc(CNCCCNCCCNCCCCCCCC)c1` [CZ-100, N^1,N^1′-(1,3-phenylenebis(methylene))bis(N^3-(3-(octylamino)propyl)propane-1,3-diamine)], the “zones of inhibition in bacterial lawns” value in data set [1] is recorded as “created zones of inhibition”. For the same molecule, the MIC with MRSA [2] (Table 5), in the data set on A. baumannii (Table 5) and in the data set with P. aeruginosa (setting [4]) was < 50 µM in each case. Moreover, the “Results Pass/Fail” value in the data set on L-929 cells (ATCC CCL-1) (3.125 μg/mL) was “Pass (receives a passing score (Pass) if the reactivity grade is not greater than grade 2 or a mild reactivity)”; in the data set on L-929 cells (ATCC CCL-1) (6.25 μg/mL), “Pass (receives a passing score (Pass) if the reactivity grade is not greater than grade 2 or a mild reactivity)”; with L-929 cells (ATCC CCL-1) (12.5 μg/mL) it was “Pass (receives a passing score (Pass) if the reactivity grade is not greater than grade 2 or a mild reactivity)”; in the data set with L-929 cells (ATCC CCL-1) (25 μg/mL), “Fail (a numerical grade greater than 2 is considered a cytotoxic effect, or a failing score (Fail))”; in the data set on L-929 cells (ATCC CCL-1) (1.563 (unit not given)) it was “Pass (receives a passing score (Pass) if the reactivity grade is not greater than grade 2 or a mild reactivity)”.
Take `CC(C)(C)CC(C)(C)c1ccc(OCCOCC[N+](C)(C)Cc2ccccc2)cc1` [benzethonium chloride]: the “biofilm dispersal effect (comparison)” value in the data set on biofilms of MRSA was “not seen”.
As for `NCCCNCc1ccccc1` [CZ-4, N^1-benzylpropane-1,3-diamine], the MIC (usually the smallest concentration in the dilution series that meets the test's criterion for growth inhibition) is > 100 µM in the data set on MRSA [2] (Table 5), > 1200 µg/mL in the data set on MRSA [3] and > 100 µM in the data set with P. aeruginosa (setting [4]).
Regarding `CCC(CC)COc1cc(CNCCCNCCCN)cc(CNCCCNCCCN)c1` [CZ-90, N^1,N^1′-((5-(2-ethylbutoxy)-1,3-phenylene)bis(methylene))bis(N^3-(3-aminopropyl)propane-1,3-diamine), hydrochloride salt], in the data set on human blood, the “Average Hemolytic Index (% Hemolysis)” value was 0.76 % Hemolysis; the “Hemolytic Grade” value was “non-hemolytic”; the “difference between the hemolytic indexes of test article and negative control” value was 0.00%. Moreover, the “Average Optical Density” value in the data set on human blood (540 nm) amounted to 0.003. Further, in the data set on human blood (540 nm, three tubes, 37 ± 2° C., 3 hours), the “Optical Density” value is 0.003. In the data set with human blood (hemolytic index of the PBS blank subtracted), the “Corrected Hemolytic Index (% Hemolysis)” value was found to be 0.00 % Hemolysis. In addition, the “Hemolytic Index” value in the data set with human blood (three tubes) is reported as 0.764. Moreover, the MIC in the data set on MRSA [2] is < 50 µM. Also, the MIC in the data set on P. aeruginosa (setting [5]) was < 50 µM.
On to `NCCCNCc1cccc(CNCCCN)c1` [CZ-12], for which the MIC was > 100 µM in the data set on MRSA [2] (Table 5), 300 µg/mL (≈ 1200 µM) against MRSA [3] and 50 to 100 µM (≈ 12.5 to 25 µg/mL) in the data set on P. aeruginosa (setting [4]).
On to `CCCCCCCCNCCCNCCCNCc1cc(CNCCCNCCCNCCCCCCCC)cc(OCCCNCC(C)C)c1` [CZ-110, N^1,N^1′-((5-(3-(isobutylamino)propoxy)-1,3-phenylene)bis(methylene))bis(N^3-(3-(octylamino)propyl)propane-1,3-diamine)], for which the “zones of inhibition in bacterial lawns” value in data set [1] was “created zones of inhibition”. The minimal inhibitory concentration (MIC) in the data set with MRSA [2] (Table 5), in the data set on A. baumannii (Table 5) and in the data set on P. aeruginosa (setting [4]) was < 50 µM in each case.
On to `CCCCC(CC)COc1cc(CNCCCNCCCN)cc(CNCCCNCCCN)c1` (centres unmarked) [CZ-81, N^1,N^1′-((5-((2-ethylhexyl)oxy)-1,3-phenylene)bis(methylene))bis(N^3-(3-aminopropyl)propane-1,3-diamine), hydrochloride salt], for which the MIC with MRSA [2], with A. baumannii and in the data set with P. aeruginosa (setting [5]) was < 50 µM in each case.
